Key:
[1] = tested on: Streptomyces venezuelae ATCC 10712; assay: In planta co-inoculation on tomato roots, UPLC-MS of rhizosphere extracts; conditions: tomato roots on Hoagland agar, 7 days at 22°C, UPLC-MS of agar near the roots, four biological replicates
Protocol: For the in planta studies, tomato seeds (Solanum lycopersicum var. Moneymaker) were sterilized following the protocol described by ([26]). Briefly, tomato seeds were primarily sterilized in 70% ethanol (vol/vol) by gently shaking for 2 min. Further, the ethanol was removed and the seeds were added to 50 mL of the sterilization solution [4.5 mL of bleach containing 9.5% (vol/vol) of active chlorine, 0.01 g of Tween 80, and 45.5 mL of sterile water] and gently shaken for 10 min. Seeds were thereafter washed 10 times with water to eliminate sterilization solution residues. […]
All UPLC-MS analyses were performed using an Agilent 1290 Infinity II coupled with a diode array detector and a mass detector (Jet Stream ESI-Q-TOF 6530) in positive mode with the parameters set up as follows: capillary voltage of 3.5 kV, nebulizer pressure of 35 lb/in^2, drying gas of 8 L/min, drying gas temperature of 300°C, flow rate of sheath gas of 11 L/min, sheath gas temperature of 350°C, fragmentor voltage of 175 V, skimmer voltage of 65 V, and octopole radiofrequency of 750 V. Accurate mass spectra were recorded in the m/z range of 300–1,700. […]

tobacco cells = conditions: cited from earlier work
Excerpt: Additionally, CLPs are key multifunctional BSMs whose biocontrol-associated activities often involve membrane perturbation and pore formation ([16]). This CLP-membrane interaction is enabled by the peculiar amphiphilic three-dimensional structures of those CLPs ([17], [18]). However, since the degradation alters their structures, it is likely associated with a loss of function. […] Likewise, linearization of su ...

Streptomyces = conditions: cited from earlier work
Excerpt: As soils are carbon-rich and nitrogen-poor environments, exogenous CLP degradation may thus represent a foraging strategy for Streptomyces to access alternative sources of nutriments directly emanating from diverse microbial competitors. We assume that, in this ...

[2] = tested on: Streptomyces venezuelae ATCC 10712; assay: Confrontation assay B. velezensis GA1 / S. venezuelae on REM plate, UPLC-MS metabolite profiling of the agar
Protocol: Confrontation assays were performed on square Petri dishes (12 × 12 cm) with 40 mL of REM solid medium at 26°C (REM supplemented with 14 g/L of agar).
S. venezuelae ATCC 10712 was inoculated as stripes (1 × 12 cm) in the middle of the plate with 40 µL of spore suspension (10^7 spores/mL) and spread with a cotton swab. Next, B. velezensis GA1 cells were collected from fresh precultures as described and adjusted to OD600 nm 0.1. Then, 5 µL of B. velezensis GA1 suspension was spotted at 1 cm of the Streptomyces line. Control plates were done following the same procedure without the inoculation of either Bacillus or Streptomyces. Plates were then incubated for 3 days at 26°C in the dark. Pictures of the plates were then captured using a CoolPix camera (NIKKOR ×60 wide optical zoom extra-low dispersion vibration reduction 4.3–258.0 mm 1:33 to 6.5).
The extraction of the metabolites from the agar was performed as follows. For the confrontation experiment, we precisely sampled the area of agar (2 × 1 cm) near the colony of Bacillus or Streptomyces (the confrontation zone is 1 cm wide) with standardized plugs. For the in planta, we sampled the agar area (1 × 1 cm) near the tomato roots. In both cases, the agar samples were transferred to Eppendorf tubes and placed for 24 h at −20°C. Then, the agar was thawed at room temperature and centrifuged for 10 min at 13,000 rpm. The supernatants were then collected and filtered (0.22-µm pore size filters) before UPLC-MS analysis.
All UPLC-MS analyses were performed using an Agilent 1290 Infinity II coupled with a diode array detector and a mass detector (Jet Stream ESI-Q-TOF 6530) in positive mode with the parameters set up as follows: capillary voltage of 3.5 kV, nebulizer pressure of 35 lb/in^2, drying gas of 8 L/min, drying gas temperature of 300°C, flow rate of sheath gas of 11 L/min, sheath gas temperature of 350°C, fragmentor voltage of 175 V, skimmer voltage of 65 V, and octopole radiofrequency of 750 V. Accurate mass spectra were recorded in the m/z range of 300–1,700. For untargeted MS/MS, we used the same MS1 parameters as described. We added MS2 untargeted acquisition mode with the parameters as follows: MS/MS range 50–1,700 m/z; MS/MS scan rate 3 spectra/s; isolation width MS/MS medium (approx. 4 AMU), Decision Engine Native; fixed collision energies of 25 and 40 V for surfactin, 50 V for iturin, and 60 V for fengycin experiments; precursor selection: three for the surfactin experiment, four for the iturin and fengycin experiments, threshold 1,500 (Abs), isotope model common, active exclusion after two spectra and release after 0.5 min, sorting the precursors by charge state then abundance (charge state preference 1). For targeted MS/MS, we used the same MS1 parameters MS/MS range of 50–1,700 m/z or 50–3,200 (when required for Pseudomonas CLPs with mass >1,700 Da), MS/MS scan rate 3 spectra/s, isolation width MS/MS narrow (approx. 1.3 amu), and fixed collision energies 20, 40, and 60V. In all experiments, a C18 Acquity UPLC ethylene bridged hybrid column (2.1 mm × 50 mm × 1.7 µm; Waters Corporation, Milford, MA, USA) was used at a flow rate of 0.6 mL/min and a temperature of 40°C. The injection volume was 20 µL, and the diode array detector scanned a wavelength spectrum between 190 and 600 nm. Unless otherwise mentioned, a gradient of acidified water (0.1% formic acid) (solvent A) and of acidified acetonitrile (0.1% formic acid) (solvent B) was used as mobile phase with a constant flow rate of 0.6 mL/min, starting at 10% B and rising to 100% B in 20 min. Solvent B was kept at 100% for 4 min before going back to the initial ratio. MassHunter Workstation (version 10.0) and ChemStation software were used for data collection and analysis. For untargeted analysis of iturin and fengycin degradation products, we used the same solvent and flow rate, starting at 10% B to 20% in 2 min, then rising to 50% B at 14 min and 100% B at 25 min, followed by 100% B and 5 at 10% B at 6 min.

surfactin
linear forms in rhizosphere extracts upon co-inoculation of Bv with Sv [1]: high proportion of linear | effect of linearization on the potential to stimulate immune-related defense responses (tobacco cells): almost full loss | effect on aerial mycelium formation of Streptomyces (Streptomyces): inhibitory effect | abundance of the CLP in the confrontation zone compared with monocultures [2]: decrease in the abundance | shorter CLP fragment detected in the confrontation zone but not in Bv monoculture [2]: loss of the fatty acid from the linear form
